Entries after “also recorded” stand apart in the source; their conditions may differ.
Legend:
[1] = system: BACE2 (Tmem27 cleavage) in isolated human pancreatic islets; details: 200 nM, 72 h, islets from two human donors
Protocol: Freshly isolated human islets from two different donors (male, 51 years, BMI: 27.5 kg/m2; […], BMI: 22.2 kg/m2; circa 3000 islets per donor) were obtained from Dr. D. Bosco (Cell Isolation and Transplantation Center, Department of Surgery, Geneva, Switzerland) and maintained in CMRL-1066 (Invitrogen) at 5.6 mmol/l glucose supplemented with 10% FCS, 100 U/ml penicillin, 100 μg/ml streptomycin and 100 μg/ml gentamycin (Sigma) for 2 days before experiments. The present investigation was approved by the institutional ethics committee. […] Islets were collected by centrifugation and total proteins were extracted using CELYA lysis buffer CLB1 (Cat*9000, Zeptosens) following the manufacturer's protocol.
Total islet proteins (10 μg) were fractionated by NuPAGE 4-12% Bis-TrisGel (Cat*NP0321Box, Invitrogen) and transferred to nitrocellulose using iBlot system (Cat*IB3010-01, Invitrogen).

[2] = system: Zucker Diabetic Fatty (ZDF) rats; assay: Oral glucose tolerance test (oGTT) after chronic treatment of ZDF rats; assay type: in vivo, rat
Protocol: This study was conducted with male ZDF rats [ZDF/gmiCrl fa/fa] and lean rats [ZDF/gmiCrl fa/+] (Charles River Laboratories, Sulzfeld, Germany). The ZDF rats are a commonly used model of human type 2 diabetes characterized by insulin resistance, β-cell defects and hyperglycemia. Onset of diabetes in males is at the age of 8 to 10 weeks when fed a diabetogenic diet. All rats (ZDF and Lean rats) with an age of 6 weeks at the beginning of the experiment are fed a special diet (“PURINA PMI 5008”, ZDF_diet=Ssniff R/M−H) and housed 1 per cage (type 3). Ambient temperature is approximately 21° C. and relative humidity 55-65%. A 12 hours light-dark cycle is maintained in the rooms with all tests being performed during the light phase. Access to food and tap water is ad libitum.
(§1) Body weight and food intake were monitored daily. Blood glucose was measured weekly in all rats. After 3 weeks of treatment an oGTT was performed on 6 overnight fasted rats per groups. At about week 4 and after anesthesia, 2 to 3 ZDF rats per day and per group underwent pancreas surgery and in-situ pancreas perfusion with low/high glucose conditions. 120 eluted fractions per rat were collected for glucose and insulin quantification.
An oGTT was conducted on day 18 of treatment. After on overnight fast of approximately 16 h post treatment, rats were given a glucose load of 2 g/kg by gavage. Blood samples were collected immediately prior to glucose challenge (0 min) and +10, +30, +60 and +120 min after glucose challenge and blood glucose and other plasma parameters were determined.
Blood glucose was measured with a blood glucose monitoring system (Accu-Chek Aviva, Roche Diagnostics GmbH, Rotkreuz, Switzerland). Insulin was measured by ELISA, using the Mercodia Rat Insulin ELISA (Mercodia AB, Uppsala, Sweden).
Data were analyzed using the software SAS/JMP for Windows (version 6.0.0, SAS Institute Inc., Cary, N.C.). Data were expressed as mean±SEM (standard error of the mean). The number of rats was 6 per group. Comparison was made versus Vehicle, using Analysis of Variance ANOVA followed by post hoc Dunnett's test.

pancreas of ZDF rats = assay: Assessment of β-cell function by in situ pancreas perfusion (glucose-stimulated insulin secretion); assay type: in vivo, rat
Protocol: as §1
Rats were anesthetized (Temgesic (0.1 ml/100 g) first, then anesthetic cocktail: Ketamine (77 mg/kg), Xylazine (11 mg/kg), i.p. injection, volume 2 ml/kg). Pancreas was surgically isolated from other connecting organs and from nerves and veins and artery afferences and efferences, keeping access to abdominal aorta and portal vein which are both cannulated. Once surgery was done, rats were placed into a temperature controlled box (37° C.) and pancreata were connected to infusion pumps via abdominal aorta.
The glucose-stimulated insulin secretion (GSIS) was obtained by perfusing pancreata with Krebs-Ringer buffer containing low/high glucose concentration as described into protocol designed in FIG. 7. Basically, pancreata were first perfused with freshly prepared Krebs-Ringer solution (5 ml/min) containing low glucose concentration (2.8 mM) for about 30 minutes, stabilizing basal insulin secretion. Then, the first stimulation with high glucose concentration solution (16.7 mM) was given to sensitize the pancreata, leading to modest phase 1 and phase 2 insulin secretion.
Pancreas elution fractions were collected in 96-well plates (via a catheter introduced into the portal vein) at regular time intervals and immediately cooled down to 4° C. and subsequently stored at −20° C. until analyzed. At least, 120 eluted fractions per rat were collected for measurement of glucose and insulin levels.

C[C@@]1(c2cc(NC(=O)c3ccc(Cl)cn3)ccc2F)CCSC(N)=N1 (single isomer, unassigned) [Example 1]
full-length TMEM27 (immunoblot) [1]: stabilized the full length of TMEM27; also recorded: preservation of full-length TMEM 27
Insulin AUC (0-120 minutes) during oGTT ([2]; 8.5 week old ZDF rats treated 17 days, 0.2, 5, 30 mg/kg p.o.): dose-dependent increase in insulin levels without reaching significance
fasting insulin levels ([2]; 8.5 week old ZDF rats treated 17 days, Example 1 p.o., Liraglutide 0.4 mg/kg s.c.): did not change fasting insulin levels compared to vehicle
insulin levels during oGTT (post glucose challenge) ([2]; 8.5 week old ZDF rats treated 17 days, glucose 2 g/kg, Example 1 0.2, 5, 30 mg/kg p.o., Liraglutide 0.4 mg/kg s.c.): increased insulin levels (at peak and up to 60 minutes post glucose challenge); also recorded: dose-dependent increase in insulin levels secreted during oGTT
fasting blood glucose (FBG) after overnight fasting ([2]; 8.5 week old ZDF rats, Example 1 0.2-5-30 mg/kg p.o., Liraglutide 0.4 mg/kg s.c., 17 days): trend to reduce fasting blood glucose after overnight fasting conditions (FBG) without reaching significance
efficacy in oGTT compared with Liraglutide ([2]; Example 1 30 mg/kg p.o. versus Liraglutide 0.4 mg/kg s.c., chronic treatment): close to that induced by chronic treatment with Liraglutide
post-challenged glucose levels ([2]; ZDF rats after 17 days of oral treatment (summary)): reduced post-challenged glucose levels
improvement of glucose tolerance (blood glucose during oGTT) ([2]; ZDF rats, 30 mg/kg p.o. daily for 17 days, versus vehicle): reached significance at 30′, 60′ and 120′ post glucose challenge
glucose area under the curve (AUC 0-120 minutes) during oGTT ([2]; ZDF rats, 0.2, 5, 30 mg/kg p.o. daily for 17 days, oGTT day 18, versus vehicle): dose-dependently reduced; also recorded: dose dependent reduction of glucose AUC reaching significant values at 30 mg/kg
AUC off-response of insulin secretion (perfused pancreas) (pancreas of ZDF rats; 30 mg/kg, 3 to 4 weeks of treatment, after high glucose 16.7 mM, versus vehicle): reduced
basal insulin secretion (perfused pancreas) (pancreas of ZDF rats; 30 mg/kg, 3 to 4 weeks of treatment, low glucose 2.8 mM, versus vehicle): reduced
insulin secretion profile (Phase 1/Phase 2) (pancreas of ZDF rats; ZDF rats, chronic treatment, in situ pancreas perfusion): normalized the insulin secretion profile (Phase 1/Phase 2)
